Patent US10150737B2, “Compounds for controlling arthropods” (priority 2013, dated 2018)

Assays:
Ctenocephalides felis = Ctenocephalides felis - oral test; format: in vivo; conditions: application rate 100 ppm in citrated cattle blood; after 2 days
Method: (§1) Solvent: dimethyl sulphoxide
For the purpose of producing an appropriate active ingredient formulation, 10 mg of active ingredient are mixed with 0.5 ml of dimethyl sulphoxide. Dilution with citrated cattle blood gives the desired concentration.
About 20 unfed adult cat fleas (Ctenocephalides felis) are placed into a chamber which is closed at the top and bottom with gauze. A metal cylinder whose bottom end is closed with parafilm is placed onto the chamber. The cylinder contains the blood/active ingredient preparation, which can be imbibed by the fleas through the parafilm membrane.
After 2 days, the kill in % is determined. 100% means that all of the fleas have been killed; 0% means that none of the fleas have been killed.

[1] = logP determination by HPLC on a reversed-phase column (C18); format: physicochemical; conditions: for logP^a): HPLC-MS method a); for log P: HPLC-MS; for logP: HPLC, C18 reversed phase, acetonitrile/water with formic acid, EEC Directive 79/831 Annex V.A8
Boophilus microplus = Boophilus microplus - injection test; format: in vivo; conditions: application rate 20 μg/animal; injection into engorged adult female ticks; after 7 days
Method: as §1
To produce an appropriate active ingredient formulation, 10 mg of active ingredient are mixed with 0.5 ml of solvent and the concentrate is diluted with solvent to the desired concentration.
1 μl of the active ingredient solution is injected into the abdomen of 5 engorged adult female cattle ticks (Boophilus microplus). The animals are transferred into dishes and kept in a climate-controlled room.
Efficacy is assessed after 7 days by laying of fertile eggs. Eggs which are not visibly fertile are stored in a climate-controlled cabinet until the larvae hatch after about 42 days. An efficacy of 100% means that none of the ticks has laid any fertile eggs; 0% means that all the eggs are fertile.

Tetranychus urticae = Tetranychus urticae - spray test, OP-resistant; format: in vivo; conditions: bean leaf discs, after 6 days
Method: (§2) Solvent: 78.0 parts by weight of acetone and 1.5 parts by weight of dimethylformamide
(§3) Emulsifier: alkylaryl polyglycol ether
(§4) To produce an appropriate active ingredient formulation, 1 part by weight of active ingredient is dissolved using the specified parts by weight of solvent and made up with water containing an emulsifier concentration of 1000 ppm until the desired concentration is attained. To produce further test concentrations, the preparation is diluted with emulsifier-containing water.
Discs of bean leaves (Phaseolus vulgaris) infested by all stages of the greenhouse red spider mite (Tetranychus urticae) are sprayed with an active ingredient formulation of the desired concentration.
After 6 days, efficacy in % is determined. 100% means that all the spider mites have been killed; 0% means that none of the spider mites have been killed.

Phaedon cochleariae = Phaedon cochleariae - spray test; format: in vivo; conditions: larvae on Chinese cabbage leaf discs, after 7 days
Method: as §2, §3, §4
Discs of Chinese cabbage leaves (Brassica pekinensis) are sprayed with an active ingredient formulation of the desired concentration and, after drying, populated with larvae of the mustard beetle (Phaedon cochleariae).
After 7 days, efficacy in % is determined. 100% means that all the beetle larvae have been killed; 0% means that no beetle larvae have been killed.

Spodoptera frugiperda = Spodoptera frugiperda - spray test; format: in vivo; conditions: caterpillars on maize leaf discs, after 7 days
Method: as §2, §3, §4
Leaf discs of maize (Zea mays) are sprayed with an active ingredient formulation of the desired concentration and, after drying, populated with caterpillars of the armyworm (Spodoptera frugiperda).
After 7 days, efficacy in % is determined. 100% means that all the caterpillars have been killed; 0% means that no caterpillars have been killed.

[2] = reversed-phase column (C18), Table I-T3

Cc1cc(C(F)(C(F)(F)F)C(F)(F)F)cc(C)c1-n1cc(-c2cc(C(=O)NC3CC3)c(F)cc2Cl)cn1 [I-T3-11]
efficacy (kill) (Ctenocephalides felis): 95% | logP^a) [1]: 4.9 | logP^a) [1, 2]: 4.9 | efficacy (laying of fertile eggs) (Boophilus microplus): 100%

CCS(=O)(=O)c1cc(C(F)(F)F)cc(Cl)c1-n1cc(-c2ccc(Cl)c(C(=O)NC3(C#N)CC3)c2)cn1 [I-T3-183]
efficacy (Tetranychus urticae; application rate 100 g/ha): 100% | log P [1, 2]: 3.1 | efficacy (Phaedon cochleariae; application rate 100 g/ha): 100%

O=C(NC1CC1)c1cc(-c2cnn(-c3c(Cl)cc(C(O)(C(F)(F)F)C(F)(F)F)cc3Cl)c2)cnc1Cl [I-T3-221]
efficacy (Tetranychus urticae; application rate 100 g/ha): 100% | log P [1, 2]: 3.0 | efficacy (Phaedon cochleariae; application rate 100 g/ha): 100%

CN(C(=O)c1cc(-c2ccn(-c3c(Cl)cc(C(F)(C(F)(F)F)C(F)(F)F)cc3Cl)c2)cnc1Cl)C1(C#N)CC1 [I-T46-6]
efficacy (Tetranychus urticae; application rate 100 g/ha): 100% | efficacy (Spodoptera frugiperda; application rate 100 g/ha): 100% | logP [1]: 4.8 | efficacy (Phaedon cochleariae; application rate 100 g/ha): 100%

Cc1cc(C(F)(C(F)(F)F)C(F)(F)F)cc(C(F)(F)F)c1-n1cc(-c2cnc(Cl)c(C(=O)NCC3(C#N)CC3)c2)cn1 [I-T3-197]
efficacy (Tetranychus urticae; application rate 100 g/ha): 100% | efficacy (Spodoptera frugiperda; application rate 100 g/ha): 100% | log P [1, 2]: 4.0 | efficacy (Phaedon cochleariae; application rate 100 g/ha): 100%

Cc1cc(C(F)(C(F)(F)F)C(F)(F)F)cc(C)c1-n1cc(-c2cc(C(=O)NC3(C#N)CC3)ccc2F)cn1 [I-T3-19]
efficacy (Spodoptera frugiperda; application rate 500 g/ha): 100% | efficacy (kill) (Ctenocephalides felis): 95% | logP^a) [1]: 4.3 | logP^a) [1, 2]: 4.3 | efficacy (laying of fertile eggs) (Boophilus microplus): 100% | efficacy (Phaedon cochleariae; application rate 500 g/ha): 100%

CC[S+]([O-])c1cc(C(F)(F)F)cc(C#N)c1-n1cc(-c2ccc(Cl)c(C(=O)NC3CC3)c2)cn1 (centres unmarked) [I-T3-181]
efficacy (Tetranychus urticae; application rate 100 g/ha): 100% | log P [1, 2]: 2.7 | efficacy (Phaedon cochleariae; application rate 100 g/ha): 100%

CCS(=O)(=O)c1cc(C(F)(F)F)cc(C#N)c1-n1cc(-c2ccc(Cl)c(C(=O)NC3(C#N)CC3)c2)cn1 [I-T3-190]
efficacy (Tetranychus urticae; application rate 100 g/ha): 100% | log P [1, 2]: 2.9 | efficacy (Phaedon cochleariae; application rate 100 g/ha): 100%

N#CC1(NC(=O)c2cccc(-c3cnn(-c4c(Cl)cc(C(F)(C(F)(F)F)C(F)(F)F)cc4Cl)c3)c2F)CC1 [I-T3-22]
efficacy (Tetranychus urticae; application rate 500 g/ha): 100% | efficacy (Spodoptera frugiperda; application rate 500 g/ha): 100% | logP^a) [1]: 4.1 | logP^a) [1, 2]: 4.1 | efficacy (Phaedon cochleariae; application rate 500 g/ha): 100%

CCSc1cc(C(F)(C(F)(F)F)C(F)(F)F)cc(Cl)c1-n1cc(-c2ccc(Cl)c(C(=O)NC3(C#N)CC3)c2)cn1 [I-T3-192]
efficacy (Tetranychus urticae; application rate 100 g/ha): 100% | efficacy (Spodoptera frugiperda; application rate 100 g/ha): 100% | log P [1, 2]: 4.5 | efficacy (Phaedon cochleariae; application rate 100 g/ha): 100%

Cc1cc(C(F)(C(F)(F)F)C(F)(F)F)cc(C)c1-c1ccn(-c2ccc(Cl)c(C(=O)NC3(C#N)CC3)c2)n1 [I-T2-2]
efficacy (Spodoptera frugiperda; application rate 100 g/ha): 100% | logP^a) [1]: 4.8 | efficacy (laying of fertile eggs) (Boophilus microplus): 100% | efficacy (Phaedon cochleariae; application rate 100 g/ha): 100%

CCS(=O)(=O)c1cc(C(F)(F)F)cc(C#N)c1-n1cc(-c2ccc(Cl)c(C(=O)NC3CC3)c2)cn1 [I-T3-180]
efficacy (Tetranychus urticae; application rate 100 g/ha): 100% | log P [1, 2]: 2.8 | efficacy (Phaedon cochleariae; application rate 100 g/ha): 100%

CCSc1cc(C(F)(F)F)cc(C#N)c1-n1cc(-c2ccc(Cl)c(C(=O)NC3(C#N)CC3)c2)cn1 [I-T3-177]
efficacy (Tetranychus urticae; application rate 100 g/ha): 100% | efficacy (Spodoptera frugiperda; application rate 100 g/ha): 83% | log P [1, 2]: 3.4 | efficacy (Phaedon cochleariae; application rate 100 g/ha): 100%

CCS(=O)(=O)c1cc(C(F)(C(F)(F)F)C(F)(F)F)cc(S(=O)(=O)CC)c1-n1cc(-c2ccc(Cl)c(C(=O)NC3(C#N)CC3)c2)cn1 [I-T3-198]
efficacy (Spodoptera frugiperda; application rate 100 g/ha): 100% | log P [1, 2]: 3.7 | efficacy (Phaedon cochleariae; application rate 100 g/ha): 100%

CCS(=O)(=O)c1cc(C(F)(F)F)cc(Cl)c1-n1cc(-c2ccc(Cl)c(C(=O)NC3CC3)c2)cn1 [I-T3-178]
efficacy (Tetranychus urticae; application rate 100 g/ha): 100% | log P [1, 2]: 3.2 | efficacy (Phaedon cochleariae; application rate 100 g/ha): 100%

N#CC1(NC(=O)c2cc(-c3ccn(-c4c(Cl)cc(C(F)(C(F)(F)F)C(F)(F)F)cc4Cl)c3)cnc2Cl)CC1 [I-T46-5]
efficacy (Tetranychus urticae; application rate 100 g/ha): 100% | efficacy (Spodoptera frugiperda; application rate 100 g/ha): 100% | logP [1]: 4.4 | efficacy (Phaedon cochleariae; application rate 100 g/ha): 100%

CC[S+]([O-])c1cc(C(F)(C(F)(F)F)C(F)(F)F)cc(Cl)c1-n1cc(-c2ccc(Cl)c(C(=O)NC3(C#N)CC3)c2)cn1 (centres unmarked) [I-T3-195]
efficacy (Tetranychus urticae; application rate 100 g/ha): 90% | log P [1, 2]: 3.8 | efficacy (Phaedon cochleariae; application rate 100 g/ha): 100%

O=C(NC1CC1)c1cc(-c2cnn(-c3c(Cl)cc(C(F)(C(F)(F)F)C(F)(F)F)cc3Cl)c2)cnc1N1CCCC1 [I-T3-135]
efficacy (kill) (Ctenocephalides felis): 100% | logP^a) ([1]; reversed-phase column (C18)): 4.3 | log P [1, 2]: 4.3

Cc1ccc(C(=O)NC2CC2)cc1-c1cnn(-c2c(C)cc(C(F)(C(F)(F)F)C(F)(F)F)cc2C)c1 [I-T3-16]
efficacy (kill) (Ctenocephalides felis): 80% | logP^a) [1]: 4.4 | logP^a) [1, 2]: 4.4

CCSc1cc(C(F)(C(F)(F)F)C(F)(F)F)cc(SCC)c1-n1cc(-c2ccc(Cl)c(C(=O)NC3(C#N)CC3)c2)cn1 [I-T3-191]
efficacy (Spodoptera frugiperda; application rate 100 g/ha): 100% | log P [1, 2]: 4.7 | efficacy (Phaedon cochleariae; application rate 100 g/ha): 100%

CN(C(=O)c1cc(-c2cnn(-c3c(Cl)cc(C(O)(C(F)(F)F)C(F)(F)F)cc3Cl)c2)cnc1Cl)C1(C#N)CC1 [I-T3-223]
efficacy (Tetranychus urticae; application rate 100 g/ha): 100% | log P [1, 2]: 3.3 | efficacy (Phaedon cochleariae; application rate 100 g/ha): 100%

N#CC1(NC(=O)c2cc(-c3cnn(-c4c(Cl)cc(C(F)(F)F)cc4[N+](=O)[O-])c3)ccc2Cl)CC1 [I-T3-169]
efficacy (Tetranychus urticae; application rate 100 g/ha): 100% | efficacy (Spodoptera frugiperda; application rate 100 g/ha): 83% | log P [1, 2]: 3.2 | efficacy (Phaedon cochleariae; application rate 100 g/ha): 100%

N#CC1(NC(=O)c2cc(-c3cnn(-c4c(Cl)cc(C(O)(C(F)(F)F)C(F)(F)F)cc4Cl)c3)cnc2Cl)CC1 [I-T3-222]
efficacy (Tetranychus urticae; application rate 100 g/ha): 100% | log P [1, 2]: 3.0 | efficacy (Phaedon cochleariae; application rate 100 g/ha): 100%

CCSc1cc(C(F)(F)F)cc(Cl)c1-n1cc(-c2ccc(Cl)c(C(=O)NC3CC3)c2)cn1 [I-T3-172]
efficacy (Tetranychus urticae; application rate 100 g/ha): 90% | log P [1, 2]: 3.9 | efficacy (Phaedon cochleariae; application rate 100 g/ha): 100%

CN(C(=O)c1cc(-c2ccn(-c3c(Cl)cc(C(F)(C(F)(F)F)C(F)(F)F)cc3Cl)c2)cnc1Cl)C1CC1 [I-T46-3]
efficacy (Spodoptera frugiperda; application rate 100 g/ha): 100% | logP [1]: 5.0 | efficacy (Phaedon cochleariae; application rate 100 g/ha): 100%

O=C(NC1CC1)c1cc(-c2cnn(-c3ncc(C(F)(C(F)(F)F)C(F)(F)F)cc3Cl)c2)ccc1Cl [I-T3-152]
efficacy (Spodoptera frugiperda; application rate 100 g/ha): 100% | logP^a) ([1]; reversed-phase column (C18)): 4.1 | log P [1, 2]: 4.1 | efficacy (Phaedon cochleariae; application rate 100 g/ha): 100%
